Test results: patent US7601856B2 (Wyeth, priority 2006, dated 2009)

What follows are molecules tested on isolated rat bladder strips (assay: Inhibition of contractions of isolated rat bladder strips). Settings: 0.5 h.
Procedure: The compounds of the examples were tested to determine their ability to inhibit contractions of isolated rat bladder strips. See Foster, C. […] Malmgren, A. et al. J.Urol.
Male Sprague-Dawley rats (150-200 g) were obtained from ACE animal suppliers. Animals were allowed free access to food and water.
Animals were euthanized by CO2 asphyxiation followed by a bilateral thoracotomy. […] The bladder was opened and then cut into strips 1-2 mm in width and 7-10 mm in length. The strips were subsequently suspended in a 10 ml tissue bath under an initial resting tension of 1.5 g. The strips were held in place by two surgical clips one of which was attached to a fixed hook while the other was attached to an isometric force transducer. […] The carbachol was then washed out and the tissue allowed to relax to its resting level of activity. Following a further 30 minute period of recovery an additional 15 mM KCl were introduced into the tissue bath. […] Following stabilization of this enhanced level of contractile activity, incremental increases in the concentration of test compound or vehicle were introduced into the tissue bath. Contractile activity was measured for each compound or vehicle concentration during the last minute of a 30 minute challenge.
Isometric force developed by the bladder strips was measured using a force transducer and recorded on a polygraph. Contractile activity was assessed by measuring either the average amplitude of the contractions (baseline to peak force) occurring during a one minute period or, preferably, by integrating the contractile activity with respect to time (one minute measuring period).
The percentage inhibition of contractile activity evoked by each concentration of a given test compounds was used to generate a concentration-response curve.

SMILES | IC50 [nM]
CN1CCN(CC(=O)Nc2ccc3oc4c(c3c2)CCCCC4)CC1 [Example 44, 2-(4-METHYLPIPERAZIN-1-YL)-N-7,8,9,10-TETRAHYDRO-6H-BENZO[B]CYCLOHEPTA[D]FURAN-2-YLACETAMIDE] | 1000 to 3000
CCN(C)CC(=O)Nc1ccc2oc3c(c2c1)CCCCC3 [Example 46, N^2-ETHYL-N^2-METHYL-N′-7,8,9,10-TETRAHYDRO-6H-BENZO[B]CYCLOHEPTA[D]FURAN-2-YLGLYCINAMIDE] | 7000 to 9000
CN(C)CCN(C)CC(=O)Nc1ccc2oc3c(c2c1)CCCCC3 [Example 41] | 1000 to 5000
O=C(Cc1ccncc1)Nc1ccc2oc3c(c2c1)CCCCCC3 [Example 78, N-(6,7,8,9,10,11-HEXAHYDROBENZO[B]CYCLOOCTA[D]FURAN-2-YL)-2-PYRIDIN-4-YLACETAMIDE] | 10000 to 14000
CCCCCCC(=O)Nc1ccc2oc3c(c2c1)CCCCCC3 [Example 82, N-6,7,8,9,10,11-HEXAHYDROBENZO[B]CYCLOOCTA[D]FURAN-2-YLHEPTANAMIDE] | 600 to 2000
O=C(CN1CCC2(CC1)OCCO2)Nc1ccc2oc3c(c2c1)CCCCC3 [Example 43, 2-(1,4-DIOXA-8-AZASPIRO[4.5]DEC-8-YL)-N-7,8,9,10-TETRAHYDRO-6H-BENZO[b]CYCLOHEPTA[D]FURAN-2-YLACETAMIDE] | 1000 to 3000

Same assay, conditions: 0.5 h, concentration eliciting 50% inhibition of pre-drug contractile activity, strips stimulated with additional 15 mM KCl, 30 minute challenge per concentration, read-out: IC50

SMILES | IC50 [nM]
CCCCC(=O)Nc1ccc2oc3c(c2c1)CCCCC3 [Example 31, N-(7,8,9,10-TETRAHYDRO-6H-BENZO[B]CYCLOHEPTA[d]FURAN-2-YL)PENTANAMIDE] | 3000 to 5000
O=C(Nc1ccc2oc3c(c2c1)CCCCCC3)c1ccco1 [Example 74, N-(6,7,8,9,10,11-HEXAHYDROBENZO[B]CYCLOOCTA[D]FURAN-2-YL)-2-FURAMIDE] | 10000 to 15000
CCOC(=O)CCC(=O)Nc1ccc2oc3c(c2c1)CCCCC3 [Example 32, ETHYL 4-OXO-4-(7,8,9,10-TETRAHYDRO-6H-BENZO[B]CYCLOHEPTA[D]FURAN-2-YLAMINO)BUTANOATE] | 9000 to 12000
CC(=O)N1CCC[C@H]1C(=O)Nc1ccc2oc3c(c2c1)CCCCC3 [Example 60, 1-ACETYL-N-7,8,9,10-TETRAHYDRO-6H-BENZO[B]CYCLOHEPTA[D]FURAN-2-YL-L-PROLINAMIDE] | 1300 to 2500
COc1cccc(OC)c1C(=O)Nc1ccc2oc3c(c2c1)CCCCCC3 [Example 76, N-(6,7,8,9,10,11-HEXAHYDROBENZO[B]CYCLOOCTA[D]FURAN-2-YL)-2,6-DIMETHOXYBENZAMIDE] | 7000 to 14000
C[C@H](NC(=O)OC(C)(C)C)C(=O)Nc1ccc2oc3c(c2c1)CCCCC3 [Example 56, TERT-BUTYL [(1S)-1-METHYL-2-OXO-2-(7,8,9,10-TETRAHYDRO-6H-BENZO[B]CYCLOHEPTA[D]FURAN-2-YLAMINO)ETHYL]CARBAMATE] | 300 to 600
O=C(Nc1ccc2oc3c(c2c1)CCCCCC3)c1cccs1 [Example 67, N-(6,7,8,9,10,11-HEXAHYDROBENZO[B]CYCLOOCTA[D]FURAN-2-YL)THIOPHENE-2-CARBOXAMIDE] | 600 to 800
CCCCCC(=O)Nc1ccc2oc3c(c2c1)CCCCCC3 [Example 71, N-(6,7,8,9,10,11-HEXAHYDROBENZO[B]CYCLOOCTA[D]FURAN-2-YL)HEXANAMIDE] | 200 to 1000
C[C@@H](OCc1ccccc1)C(NC(=O)OC(C)(C)C)C(=O)Nc1ccc2oc3c(c2c1)CCCCC3 (stereo in doubt) [Example 59, TERT-BUTYL {(1R,2R)-2-(BENZYLOXY)-1-[(7,8,9,10-TETRAHYDRO-6H-BENZO[B]CYCLOHEPTA[D]FURAN-2-YLAMINO)CARBONYL]PROPYL}CARBAMATE] | 1500 to 2000
O=C(CCc1ccccc1)Nc1ccc2oc3c(c2c1)CCCCC3 [Example 36, 3-PHENYL-N-(7,8,9,10-TETRAHYDRO-6H-BENZO[B]CYCLOHEPTA[D]FURAN-2-YL)PROPANAMIDE] | 3000 to 5000
O=C(CCc1ccccc1)Nc1ccc2oc3c(c2c1)CCCCCC3 [Example 72, N-(6,7,8,9,10,11-HEXAHYDROBENZO[B]CYCLOOCTA[D]FURAN-2-YL)-3-PHENYLPROPANAMIDE] | 800 to 2200
CCCCCC(=O)Nc1ccc2oc3c(c2c1)CCCC3 [Example 22, N-(6,7,8,9-TETRAHYDRODIBENZO[B,D]FURAN-2-YL)HEXANAMIDE] | 1000 to 3000
CC(=O)Nc1ccc2oc3c(c2c1)CCCCCC3 [Example 73, N-(6,7,8,9,10,11-HEXAHYDROBENZO[B]CYCLOOCTA[D]FURAN-2-YL)ACETAMIDE] | 400 to 1100

Same assay, conditions: maximum percentage inhibition of contractile activity, 30 μM, strips stimulated with additional 15 mM KCl, read-out: % Inhibition of Contractility @ 30 μM

SMILES | inhibition at 30 µM [%]
O=C(Nc1ccc2oc3c(c2c1)CCCC3)c1ccc(F)cc1 [Example 19, 4-FLUORO-N-(6,7,8,9-TETRAHYDRODIBENZO[B,D]FURAN-2-YL)BENZAMIDE] | 25 to 35
C[C@H](NC(=O)OCc1ccccc1)C(=O)Nc1ccc2oc3c(c2c1)CCCCC3 [Example 49, BENZYL [(1S)-1-METHYL-2-OXO-2-(7,8,9,10-TETRAHYDRO-6H-BENZO[B]CYCLOHEPTA[D]FURAN-2-YLAMINO)ETHYL]CARBAMATE] | 30 to 40
O=C(Nc1ccc2oc3c(c2c1)CCCCCC3)c1ccncc1 [Example 77, N-(6,7,8,9,10,11-HEXAHYDROBENZO[B]CYCLOOCTA[D]FURAN-2-YL)ISONICOTINAMIDE] | 30 to 50
O=C(Nc1ccc2oc3c(c2c1)CCCCC3)[C@@H]1CCCN1 [Example 57, N-7,8,9,10-TETRAHYDRO-6H-BENZO[B]CYCLOHEPTA[D]FURAN-2-YL-L-PROLINAMIDE] | 20 to 30
CC(CC(=O)Nc1ccc2oc3c(c2c1)CCCCCC3)CC(C)(C)C (centres unmarked) [Example 66, N-(6,7,8,9,10,11-HEXAHYDROBENZO[B]CYCLOOCTA[D]FURAN-2-YL)-3,5,5-TRIMETHYLHEXANAMIDE] | 5 to 20
O=C(CCc1ccccc1)Nc1ccc2oc3c(c2c1)CCCC3 [Example 21, 3-PHENYL-N-(6,7,8,9-TETRAHYDRODIBENZO[B,D]FURAN-2-YL)PROPANAMIDE] | 10 to 30
O=C(Cc1ccc(F)cc1)Nc1ccc2oc3c(c2c1)CCCCC3 [Example 30, 2-(4-FLUOROPHENYL)-N-(7,8,9,10-TETRAHYDRO-6H-BENZO[B]CYCLOHEPTA[D]FURAN-2-YL)ACETAMIDE] | 30 to 50
CC(C)(C)OC(=O)N[C@@H](Cc1ccccc1)C(=O)Nc1ccc2oc3c(c2c1)CCCCC3 [Example 53, TERT-BUTYL [(1S)-1-BENZYL-2-OXO-2-(7,8,9,10-TETRAHYDRO-6H-BENZO[B]CYCLOHEPTA[D]FURAN-2-YLAMINO)ETHYL]CARBAMATE] | 15 to 25
Cc1cccc(C(=O)Nc2ccc3oc4c(c3c2)CCCCCC4)c1 [Example 69, N-(6,7,8,9,10,11-HEXAHYDROBENZO[B]CYCLOOCTA[D]FURAN-2-YL)-3-METHYLBENZAMIDE] | 10 to 20
CC(C)(C)OC(=O)NCC(=O)Nc1ccc2oc3c(c2c1)CCCCC3 [Example 51, TERT-BUTYL [2-OXO-2-(7,8,9,10-TETRAHYDRO-6H-BENZO[B]CYCLOHEPTA[D]FURAN-2-YLAMINO)ETHYL]CARBAMATE] | 25 to 40

Same assay, conditions: read-out: % Inhibition of Contractility @ 30 μM

SMILES | inhibition at 30 µM [%]
O=C(Cc1ccccc1)Nc1ccc2oc3c(c2c1)CCCCCC3 [Example 75, N-(6,7,8,9,10,11-HEXAHYDROBENZO[B]CYCLOOCTA[D]FURAN-2-YL)-2-PHENYLACETAMIDE] | 30 to 40
O=C(COCCO)Nc1ccc2oc3c(c2c1)CCCCC3 [Example 45, 2-(2-HYDROXYETHOXY)-N-7,8,9,10-TETRAHYDRO-6H-BENZO[B]CYCLOHEPTA[D]FURAN-2-YLACETAMIDE] | 15 to 25
CN(CCO)CC(=O)Nc1ccc2oc3c(c2c1)CCCCC3 [Example 47, N^2-(2-HYDROXYETHYL)-N^2-METHYL-N′-7,8,9,10-TETRAHYDRO-6H-BENZO[B]CYCLOHEPTA[D]FURAN-2-YLGLYCINAMIDE] | 10
